Each block holds one molecule with its values, some of them ahead of it. Positions of bridges follow the written chain, without caps; N, C: chain ends. Non-standard residues stand in square brackets, D forms with d. Residues, ends and D or L forms follow the SMILES beside them. *: point of attachment. NH(β-GlcNAc) = CC(=O)N[C@@H]1[C@@H](O)[C@H](O)[C@@H](CO)O[C@H]1N*; Dap = NC[C@H](N)C(=O)O
Experiments:
NK2 receptors = target: T1, NK2 receptors (Rattus norvegicus, UniProt P16610); assay: Intestinal transit of a carbon suspension in infant rats, increase induced by NK2 selective agonist β-Ala^8-NKA(4-10); type: in vivo; details: infant rats aged 7-10 days
T1 construct: prevent the increase in intestinal transit induced by the stimulation of NK2 receptors by the β-Ala^8-NKA(4-10) agonist; from tissue; host or cells: whole animal: infant rats aged 7-10 days (intestine, in vivo)
T1 sequence (P16610 1-390): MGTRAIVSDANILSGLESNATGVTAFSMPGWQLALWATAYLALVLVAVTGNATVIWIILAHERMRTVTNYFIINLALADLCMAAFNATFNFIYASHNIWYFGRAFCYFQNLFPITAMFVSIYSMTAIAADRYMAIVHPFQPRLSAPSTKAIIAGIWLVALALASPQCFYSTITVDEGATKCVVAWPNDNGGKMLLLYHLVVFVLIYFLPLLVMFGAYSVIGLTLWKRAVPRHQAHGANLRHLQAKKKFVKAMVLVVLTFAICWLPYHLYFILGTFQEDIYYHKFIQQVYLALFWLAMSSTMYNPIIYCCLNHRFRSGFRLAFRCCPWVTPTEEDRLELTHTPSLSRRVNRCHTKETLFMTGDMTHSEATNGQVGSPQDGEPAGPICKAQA
Description: (§1) The formulations of the present invention were tested for their biological activity in vivo on newborn rats in accordance with the following method:
(§2) a) The NK2 selective agonist β-Ala^8-NKA(4-10) was administered intraperitoneally to infant rats aged between 7 and 10 days, both males and females, at a dose of 15 μg/kg. A 10% suspension of carbon in 1% methylcellulose was then administered orally to the animals at a volume of 15 ml/kg. The same carbon-based suspension was administered to a control group which had not received the NK2 agonist.

infant rats = assay: Basal intestinal transit in infant rats without agonist administration; type: in vivo; details: oral, nepadutant 2.5 mg/kg, measured at 6 hours after administration, no agonist
Description: as §1, §2

clinical = details: human, in vivo, po
[1] = set-up: species or system rats; details: rat, in vivo, po
animal models of IBS = details: cited from earlier work
infantile colics = details: clinical evidence from literature; cited from earlier work

- bioavailability (clinical): 1%
- bioavailability in infant rats [1]: substantially enhanced
Molecule: CC(=O)N[C@@H]1[C@@H](O)[C@H](O)[C@@H](CO)O[C@H]1NC(=O)C[C@@H]1NC(=O)[C@H](CC(C)C)NC(=O)[C@@H]2CNC(=O)C[C@H](NC1=O)C(=O)N[C@@H](Cc1c[nH]c3ccccc13)C(=O)N[C@@H](Cc1ccccc1)C(=O)N2 [Nepadutant, cyclo((Asn(β-D-2-deoxy-2-acetamido-Glc)-Asp-Trp-Phe-Dap-Leu)cyclo(2β-5β))] (cyclo(D(NH(β-GlcNAc))DWF[Dap]L); lactam 2-5)
- prevention of the increase in intestinal transit induced by β-Ala^8-NKA(4-10) (NK2 receptors; oral, nepadutant 0.5 and 2.5 mg/kg at 2, 4 and 6 hours before agonist 15 μg/kg i.p.): able to prevent the increase in intestinal transit
- effect on basal intestinal transit (infant rats): no effect on basal intestinal transit
- correction of hyperalgesia (animal models of IBS): corrects hyperalgesia

Molecule: β-Ala^8-NKA(4-10) [reference compound]
- increase in intestinal transit after agonist administration (NK2 receptors; 15 μg/kg i.p., versus control group without agonist): significant increase in intestinal transit

Molecule: simethicone
- effect versus placebo (infantile colics): no better than placebo

Reference: patent publication US7727955B2, “Pharmaceutical compositions based on NK2 antagonists for pediatric use” (Laboratori Guidotti S.p.A., priority 2004, dated 2010)
